Results: patent US20250009743A1, “METHODS OF TREATING CANCERS USING STING AGONISTS” (Dana-Farber Cancer Institute, Inc., priority 2021, published 2025)

Key:
Type in all cases: in vivo, mouse
PE tumors = assay: PE (exon19del/T790M EGFR, Trp53 loss) tumor growth in FVB mice; conditions: start at about 400 mm^3; osimertinib 10 mg/kg daily by gavage; MSA-2 20 mg/kg i.p. every three days; FIG. 30A
[1] = tested on: myeloid cells (CD45^+CD11b^+) in ascites of PBM-R tumor-bearing mice; assay: Myeloid cells in ascites of PBM-R tumor-bearing mice (transcriptome, flow cytometry); conditions: 24 hours treatment
Description: Tumors were chopped and digested in collagenase buffer as described previously (Ding et al., 2018 Cell Rep 25, 2972-2980.e2975). Single cell suspensions of tumor and ascites were obtained by filtering through 70 um strainers and treated with 1× eBioscience RBC lysis buffer (Thermo Fisher) before staining. Single cells suspensions were incubated with LIVE/DEAD Fixable Aqua Dead Cell Stain (Life Technologies, Cat #L34965) for 30 min and then blocked with anti-CD16/32 (Biolegend, clone 93) for 20 min on ice. Samples were then incubated with appropriate antibodies for 30 min on ice. Foxp3 staining buffer set (eBioscience, Cat #00-5523-00) was applied for intracellular markers staining. For the intracellular cytokine analysis, cells were stimulated with Leukocyte Activation Cocktail (BD Biosciences, Cat #550583) at 37° C. for 4-6 hours prior to FACS staining. The following antibodies were used in this study: antibodies were purchased from BioLegend unless otherwise indicated: CD45 (clone 30-F11), CD3ε (clone 145-2C11), CD4 (clone RM4-5), CD8 (clone 53-6.7), CD44 (clone IM7), CD62L (MEL-14), CD25 (PC61), IFNγ (clone XMG1.2), TNFα (clone MP6-XT22), CD11b (clone M1/70), CD11c […], F4/80 (clone BM8), Ly-6C (clone HK1.4), Ly-6G (clone 1A8), MHC-II (clone M5/114.15.2), CD80 (clone 16-10A1), CD86 (clone GL-1), MHC-I (clone KH114), FoxP3 (clone FJK-16 s; eBioscience), Phospho-IRF-3 (Ser396) (clone D601M, Cell signaling technology) and Phospho-TBK1/NAK (Ser172) (clone D52C2, Cell signaling technology). The following human antibodies were used in this study: cell surface markers includes CD45 (clone H130), CD11b (clone M1/70), CD11c (clone Bu15), CD80 (clone 2D10), CD86 (clone IT2.2), CD14 (clone 63D3), CD15 […], HLA-DR (clone L243) and HLA-A,B,C (clone W6/32); intracellular markers include CD163 (clone GHI/61), CD68 (clone Y1/82A) and CD206 (clone 15-2). Flow cytometry was performed on an LSRII (BD Biosciences) or Fortessa HTS (BD Biosciences) at DFCI Flow Cytometry Core, and all the data were analyzed using FlowJo software.
Transcriptome analysis of myeloid cells: about 1 x10^6 PBM-R tumor cells were intraperitoneally injected to FVB/NJ mice. About 2-3 weeks after injection, mice were grouped and treated with control, olaparib, MSA-2 and […] for 24 hrs. After treatment, myeloid cells (CD45^+CD11b^+) were isolated from the ascites of each mouse (n=3 per group). Total RNAs was isolated and sequenced on the Ion Torrent platform (Thermo Fisher) that described above using the Ion AmpliSeq Transcriptome Mouse Gene Expression Panel. Gene ontology (GO) analysis of DEGs was performed using topGO package in R. GSEA analysis was performed as described above. Heat maps illustrating changes in gene expression were generated using the heatmap.3 package in R.

PBM tumors = assay: PBM ovarian tumor burden in syngeneic FVB/NJ mice; conditions: olaparib 50 mg/kg i.p. 6 days a week; most tumors eventually progressed; FIG. 15B
Description: Tumor burden of PBM tumor-bearing mice treated with indicated agents was measured by bioluminescence (ROI, […]) after 2 weeks of treatment (control, n=6; olaparib, n=7, olaparib+MSA-2, n=4). Ordinary one-way ANOVA analysis. **, P<0.01; ***, P<0.001. The murine ovarian tumor model PBM used for this experiment was previously generated (Ding L, Kim H J, Wang Q, Kearns M, Jiang T, Ohlson C E, Li B B, Xie S, Liu J F, Stover E H, Howitt B E, Bronson R T, Lazo S, Roberts T M, Freeman G J, Konstantinopoulos P A, Matulonis U A, Zhao J J. PARP Inhibition Elicits STING-Dependent Antitumor Immunity in Brca1-Deficient Ovarian Cancer. Cell Rep. 2018 Dec. 11;25 (11): 2972-2980.e5. doi: 10.1016/j.celrep.2018.11.054. PMID: 30540933; PMCID: PMC6366450). About 2×10^5 PBM tumor cells were orthotopically transplanted into syngeneic FVB/NJ mice. Ten days after transplantation, Tumor-bearing mice were equivalently divided into control and treatment groups according to the luminescent intensity. Tumor burden of PBM tumor-bearing mice was measured by bioluminescence (ROI, […]). Olaparib (AZD2281) was administered daily by i.p. (intraperitoneal) injection at dose of 50 mg/kg body weight. […]
The PBM and PBM-R tumor cells were transplanted orthotopically into syngeneic FVB/NJ mice to generated tumors for drug evaluation. […] The endpoints were determined by tumor burden and ascites.

Structure (SMILES)	PE tumor growth (PE tumors)	cGAS-STING pathway gene signature in myeloid cells ([1]; vs control mice)	expression of M1-like/anti-tumorigenic genes ([1]; FIG. 21D)	expression of genes associated with antigen processing and presentation ([1]; FIG. 21D)	expression of genes associated with pro-tumorigenic M2 polarization ([1]; FIG. 21D)	population of TAMs in ascites ([1]; FIG. 21F)	population of CD11b^+CD11c^+ myeloid DCs in ascites ([1]; FIG. 21G)	PBM tumor response (PBM tumors)
COc1cc2cc(C(=O)CCC(=O)O)sc2cc1OC [MSA-2]	only modest therapeutic effects	significantly higher enrichment scores	strongly up-regulated	strongly stimulated	inhibited	decreased	increased	
O=C(c1cc(Cc2n[nH]c(=O)c3ccccc23)ccc1F)N1CCN(C(=O)C2CC2)CC1 [olaparib]								initial robust response
